Our source for the Activity and EC50 values is ChEMBL document CHEMBL4382213, “Identification and characterization of agnuside, a natural proangiogenic small molecule” (Eur J Med Chem, 2018).

In brackets after ≈: the same amount, converted by molar mass. Activity calls are given as the source filed them. The calls are words filed in the database; no cut-off is given here.

For assay [1], the system named is HUVEC. As to the kind of experiment: […] activity in HUVEC assessed as wound closure at 100 ng/ml after 24 hrs by phase-contrast microscopic analysis. The assay is classed as functional, cell-based. To be noted: Homo sapiens.
The subject of assay [2] is HUVEC. As to the kind of experiment: Pro-angiogenic activity in HUVEC assessed as increase in meshes formation at 0.1 to 10 ng/ml after 22 hrs by phase-contrast image analysis. To be noted: Homo sapiens. Type of assay: functional, cell-based.
For assay [3], the system named is HUVEC. The experiment in a line: Effect on cell morphology in HUVEC at 1 to 2500 ng/ml after 24 to 96 hrs by DAPI staining-based spectrofluorometric analysis. The assay is classed as functional. To be noted: Homo sapiens.
The subject of assay [4] is HUVEC. The experiment in a line: Pro-angiogenic activity in HUVEC assessed as increase in tubular network formation at 0.1 ng/ml after 22 hrs by phase-contrast image analysis. To be noted: Homo sapiens. The assay is classed as functional, cell-based.
Assay [5] has as its system HUVEC. As to the kind of experiment: Pro-angiogenic activity in HUVEC assessed as increase in cell proliferation at 2500 ng/ml after 96 hrs by DAPI staining-based spectrofluorometric analysis relative to control. Type of assay: functional, Homo sapiens.
Assay [6] has as its system HUVEC. As to the kind of experiment: Pro-angiogenic activity in HUVEC assessed as increase in cell proliferation after 96 hrs by DAPI staining-based spectrofluorometric analysis. The assay is classed as functional. The conditions noted are these: Homo sapiens.
Assay [7] concerns HUVEC. The experiment in a line: Pro-angiogenic activity in HUVEC assessed as increase in meshes formation after 22 hrs by phase-contrast image analysis. The assay is classed as functional, cell-based. To be noted: Homo sapiens.
The test system of assay [8] is HUVEC. As to the kind of experiment: Pro-angiogenic activity in HUVEC assessed as increase in tubular network formation at 0.1 ng/ml preincubated for 30 mins followed by ZM 323881 HCl addition and measured after 22 hrs by phase-contrast image analysis. The conditions noted are these: Homo sapiens. The assay is classed as functional, cell-based.
Assay [9] relates to HUVEC. The experiment in a line: Pro-angiogenic activity in HUVEC assessed as increase in cell proliferation at 2500 ng/ml after 24 to 72 hrs by DAPI staining-based spectrofluorometric analysis relative to control. Type of assay: functional, Homo sapiens.

Turning to `O=C(OCC1=C[C@@H](O)[C@@H]2C=CO[C@@H](O[C@@H]3O[C@H](CO)[C@@H](O)[C@H](O)[C@H]3O)[C@H]12)c1ccc(O)cc1` [AGNUSIDE], the result in assay [1], in assay [4] and in assay [8] was Active. The outcome in assay [2] and in [3] was inactive. Further, the Activity entry in assay [5] was “<=56%”; in assay [7], “Dose-dependent effect”; in [9], 20 - 30%. Besides, the EC50 (as a rule, the concentration giving half of the maximal effect) in assay [6] amounted to 1.38 mg/L (≈ 2.95 µM).
